# Entries after “also recorded” stand apart in the source; their conditions may differ. Like-named read-outs stand apart in the source and are kept apart here. Where a SMILES comes first, the peptide text is derived from it.
# Experiments:
# [1] = cited from earlier work
# [2] = published genotoxic profile; ref Kirkland et al., 2016; EFSA; cited from earlier work
# [3] = tested on: EpiIntestinal™ microtissues; test: Cytotoxicity / relative cell count (RCC) of dissociated EpiIntestinal microtissues; conditions: for Cytotoxicity / cell viability (result in words) / Cytotoxicity: 10-day exposure; for Cytotoxicity / cell viability (result in words): tested doses
# [4] = tested on: EpiIntestinal™ microtissues; test: RICyt assay: micronuclei (MN) cytome scoring in EpiIntestinal microtissues after 10-day repeated apical exposure
# [5] = tested on: EpiIntestinal™ microtissues; conditions: cited from earlier work
# [6] = tested on: EpiIntestinal™ microtissues
# [7] = tested on: EpiIntestinal™ microtissues; remark: listed apart in the source
# Caco-2 = conditions: ref Schrenk et al., 2022; cited from earlier work
# topoisomerase II = tested on: topoisomerase II; design: method as in Maralhas et al., 2006; conditions: ref Maralhas et al., 2006; cited from earlier work
# [8] = Test material solubility limit for top test concentration; format: physicochemical; conditions: for solubility: read-out: Concentration above which test material is insoluble (top test concentration)
# [9] = published genotoxic profile, ref Kirkland et al., 2016, EFSA
# [10] = 10-day exposure, relative to solvent control and historical negative control range (≤2.4 %)
# [11] = 10-day exposure, positive = significant, dose-dependent %MN increase above historical negative range (>2.4 %)
Molecule,"In vivo genotoxicity tests [1, 9]",In vitro genotoxicity tests [2],Cytotoxicity / cell viability (result in words) [3],Karyorrhectic cells (cytome analysis) ([4]; 10-day exposure),"%MN induction (result in words) [4, 10]",In vivo genotoxicity tests ([1]; in vivo),also measured
"O=Cc1ccc(CO)o1 [5-Hydroxymethyl furfural, 5-Hydroxymethylfurfural]",- MN,+ Comet and SCE - for MN,Cytotoxicity was observed with increasing doses,increase in karyorrhectic cell population though not statistically significant,consistently low without exceeding the historical negative range,,"RICyt outcome (genotoxic classification) [4, 11]: Negative; RICyt outcome (genotoxic classification) ([4]; 10-day exposure, positive = significant, dose-dependent %MN increase above historical negative range (>2.4 %), listed as 5-HMF): clear negative"
CC[C@]1(O)C[C@@H]2CN(CCc3c([nH]c4ccccc34)[C@@](C(=O)OC)(c3cc4c(cc3OC)N(C)[C@H]3[C@@](O)(C(=O)OC)[C@H](OC(C)=O)[C@]5(CC)C=CCN6CC[C@]43[C@@H]65)C2)C1 [vinblastine],,,,,,,"MN induction / genotoxicity in RICyt platform ([5]; previous publication, ref Lim et al., 2022): positive induction of MN"
COC(=O)[C@H](Cc1ccccc1)NC(=O)[C@@H](N)CC(=O)O [Aspartame] (H-Asp-Phe-OMe),"- MN, comet and CA",- CA and MN - SCE,did not produce significant %MN and cytotoxicity,,did not produce significant %MN,,"RICyt outcome (genotoxic classification) [4, 11]: Negative; RICyt outcome (genotoxic classification) ([4]; 10-day exposure, positive = significant, dose-dependent %MN increase above historical negative range (>2.4 %), listed as aspartame): clear negative"
CC(=O)O[C@H]1C(=O)[C@@]2(C)[C@H]([C@H](OC(=O)c3ccccc3)[C@]3(O)C[C@H](OC(=O)[C@H](O)[C@@H](NC(=O)c4ccccc4)c4ccccc4)C(C)=C1C3(C)C)[C@]1(OC(C)=O)CO[C@@H]1C[C@@H]2O [Paclitaxel],+ MN in bone marrow and liver,"+ MN, polyploidy in a CA test and in MLA",decrease in cell viability at the top two exposed doses,non-significant but dose dependent increase in karyorrhectic cell population,statistically significant increase in %MN; also recorded: positive induction of MN,,"RICyt outcome (genotoxic classification) [4, 11]: true positive"
C[C@H]1C(=O)O[C@@H]2CCN3CC=C(COC(=O)[C@](C)(O)[C@]1(C)O)[C@H]23 [Monocrotaline],,,,,,"+ DNA adduct, DNA crosslinking and MN",%MN increment ([6]; human): 2.53%; Cytotoxicity / cell viability (result in words) [7]: without obvious cytotoxicity; Gut permeability (Caco-2): moderate gut permeability
C=CCc1ccc(O)c(OC)c1 [Eugenol],,,cytotoxicity observed in the tested doses,consistent increase in karyorrhectic cell population,,+ MN only at very high doses. Equivocal,"Topoisomerase II activity (topoisomerase II): could inhibit topoisomerase II activity; Genotoxicity in vivo ([1]; in vivo): genotoxic positive; %MN induction (result in words) ([4]; 10-day exposure, relative to solvent control and historical negative control range (≤2.4 %), listed as EUG): very close to the established 95 % upper confident limits; RICyt outcome (genotoxic classification) [4, 11]: Equivocal"
c1ccc2c(c1)cc1ccc3cccc4ccc2c1c34 [benzo(a)pyrene],,,,,,,MN induction / genotoxicity in RICyt platform [5]: genotoxicity was successfully detected
CC(C)=CCC/C(C)=C/CC/C(C)=C/CC/C(C)=C/CC/C(C)=C/CC/C(C)=C/CC/C(C)=C/CC1=C(C)C(=O)c2ccccc2C1=O [Menaquinone 7],,,no significant MN induction nor cytotoxicity,,no significant MN induction,,Concentration above which test material is insoluble (top test concentration) ([8]; in solvent/culture media): 1000 µg/mL; Other nuclear anomalies (cytome analysis) ([4]; 10-day exposure): not detected
COc1cc(/C=C/C(=O)CC(=O)/C=C/c2ccc(O)c(OC)c2)ccc1O [Curcumin],,,,increase in karyorrhectic cells,no significant formation of MN,,solubility ([8]; in solvent/culture media): 50 µg/mL; Cytotoxicity ([3]; at higher doses / top two concentrations): 15–20%
C/C=C\c1cc(OC)c(OC)cc1OC [β-asarone],MN negative,"+ MN, comet and SCE",,,,,RICyt outcome (genotoxic classification) [6]: Negative; Cytotoxicity / cell viability (result in words) [7]: Increases in cytotoxicity at the top two doses
CCN(N=O)C(N)=O [N-Ethyl-N-nitrosourea],"+ CA, MN, comet","+ MN, CA, MLA, HPRT mutations and UDS",,non-significant increase in karyorrhectic cells,statistically significant increases in MN in a dose dependent manner,,"Cytotoxicity ([3]; across tested concentrations (ENU up to 150 µg/ml; GA up to 25 µg/ml)): ≤ 15%; %MN induction (result in words) ([4]; 10-day exposure, relative to solvent control and historical negative control range (≤2.4 %), listed as ENU): positive induction of MN"
Nc1nc(N)nc(N)n1 [Melamine],,,No genotoxicity nor cytotoxicity were detected,,not significant and below the historical negative range,,solubility ([8]; in solvent/culture media): 500 µg/mL
"CC(C)[C@@H]1CC[C@@H](C)C[C@H]1O [d,l-Menthol, D,L-MENTHOL]",,,,,,-,Concentration above which test material is insoluble (top test concentration) [8]: 500 µg/mL; %MN induction (result in words) [6]: low level of MN which fell within 95 % confident limit of the historical negative control; Cytotoxicity / cell viability (result in words) [7]: no significant impact on cell viability
CCOS(C)(=O)=O [Ethyl methanesulfonate],,,,,,"+ MN, comet and CA",Cytotoxicity / cell viability (result in words) [7]: no observable cytotoxicity
Aflatoxin B1,,,,,,"+ MN, CA, UDS − comets",Loss/reduction in cell viability [3]: ~40%; %MN induction (result in words) [4]: significant and dose-dependent formation of MN; RICyt outcome (genotoxic classification) [4]: genotoxicity was successfully detected; also recorded: Positive

# — publication PMC13289030, “Qualification of the human Reconstructed Intestine Micronuclei Cytome assay for site-of-contact genotoxic hazard identification” (NAM journal, 2025)
